In brackets after ≈: the same amount, converted by molar mass. Where two headings read alike, the source gives them in different places.

Experiment [1] has as its system E. coli NHIJ JC-2. The experiment in a line: Minimum inhibitory concentration (MIC) by agar dilution method. The experiment is classed as cell-based. The note with it: Escherichia coli. The method, then:
(§1) Minimum Inhibitory Concentration (MIC)
(§2) The minimum inhibitory concentration [MIC (unit: (μg/ml)] of the test compound was determined by an agar dilution method. More specifically, 0.25 ml of an aqueous solution of the test compound diluted stepwise was put into a Petri dish, which was then mixed with 9.75 ml of Muller-Hinton agar containing fildis enrichment [F-MH medium. fildis enrichment (5%)]). On thus-prepared mixed agar plate, a suspension of the test bacteria (about 10^6 CFU/ml) was spread, which was incubated at 37° C. overnight.

The test system of experiment [2] is H. influenzae NN400. The experiment is described as above. The conditions noted are these: Haemophilus influenzae. The experiment is classed as cell-based. As to the method: as §1, §2
The mark [3] stands for this setting: NHIJJC2, read-out: MIC (μg/ml) 10^6 CFU/ml E. coli NHIJ JC-2.
Setting [4] is: NN400, read-out: MIC (μg/ml) 10^6 CFU/ml H. influenzae NN400.
Where [5] appears, read: NHIJJC2, strain E. coli NHIJ JC-2, medium F-MH, 10^6 CFU/ml, 37° C. overnight, read-out: MIC (μg/ml) 10^6 CFU/ml E. coli NHIJ JC-2.
Where [6] appears, read: strain H. influenzae NN400, medium F-MH, 10^6 CFU/ml, 37° C. overnight, read-out: MIC (μg/ml) 10^6 CFU/ml H. influenzae NN400.

With `C[C@@H](O)[C@H]1C(=O)N2C(C(=O)[O-])=C(SCCc3cc[nH]n3)[C@H](C)[C@H]12.[Na+]` [Working Example 3-3, Sodium (4R,5S,6S)-6-[(1R)-1-hydroxyethyl]-4-methyl-7-oxo-3-[2-(3-pyrazolyl)ethylthio]-1-azabicyclo[3.2.0]hept-2-ene-2-carboxylate], the MIC in experiment [1] (setting [3]) and in experiment [2] (setting [4]) was 0.1 µg/mL each time.
On to `C[C@@H](O)[C@H]1C(=O)N2C(C(=O)[O-])=C(SCCc3cn4ccccc4n3)[C@H](C)[C@H]12.[Na+]` [Working Example 18-2, Sodium (4R,5S,6S)-6-[(R)-1-hydroxyethyl]-3-[2-(imidazo[1,2-a]pyridin-2-yl)ethylthio]-4-methyl-7-oxo-1-azabicyclo[3.2.0]hept-2-ene-2-carboxylate], for which the MIC in experiment [1] (setting [3]) was 0.2 µg/mL; in experiment [2] (setting [4]), 0.1 µg/mL.
As to `C[C@@H](O)[C@H]1C(=O)N2C(C(=O)O)=C(SCCc3c[nH]nn3)[C@H](C)[C@H]12` [Working Example 2-3, Sodium (4R,5S,6S)-6-[(1R)-1-hydroxyethyl]-4-methyl-7-oxo-3-[2-(1,2,3-triazol-4-yl)ethylthio]-1-azabicyclo[3.2.0]hept-2-ene-carboxylate], the results for the MIC in experiment [1] (setting [5]) and in experiment [2] (setting [6]) were 0.025 µg/mL and 0.1 µg/mL, respectively.
In the case of `C[C@@H](O)[C@H]1C(=O)N2C(C(=O)[O-])=C(SCCc3cn4c(NC(N)=O)cccc4n3)[C@H](C)[C@H]12.[Na+]` [Working Example 33-2, Sodium (4R,5S,6S)-6-[(1R)-1-hydroxyethyl]-4-methyl-7-oxo-3-[2-(5-ureidoimidazo[1,2-a]pyridin-2-yl)ethylthio]-1-azabicyclo[3.2.0]hept-2-ene-2-carboxylate], the values for the MIC in experiment [1] (setting [3]) and in experiment [2] (setting [4]) were 0.2 µg/mL and 0.1 µg/mL, respectively.
With `C[C@@H](O)[C@H]1C(=O)N2C(C(=O)O)=C(SCCc3cn4cc(N)ccc4n3)[C@H](C)[C@H]12` [Working Example 29-2, Sodium (4R,5S,6S)-3-[2-(6-aminoimidazo[1,2-a]pyridin-2-yl)ethylthio]-6-[(1R)-1-hydroxyethyl]-4-methyl-7-oxo-1-azabicyclo[3.2.0]hept-2-ene-carboxylate], the MIC came to 0.2 µg/mL in experiment [1] (setting [5]) and 0.05 µg/mL in experiment [2] (setting [6]).
Take `C[C@@H](O)[C@H]1C(=O)N2C(C(=O)[O-])=C(SCCc3cn4cccnc4n3)[C@H](C)[C@H]12.[Na+]` [Working Example 32-2, Sodium (4R,5S,6S)-6-[(1R)-1-hydroxyethyl]-3-[2-(imidazo[1,2-a]pyrimidin-2-yl)ethylthio]-4-methyl-7-oxo-1-azabicyclo[3.2.0]hept-2-ene-2-carboxylate]: the MIC in experiment [1] (setting [3]) stood at 0.2 µg/mL; in experiment [2] (setting [4]), 0.05 µg/mL.
For the compound `C[C@@H](O)[C@H]1C(=O)N2C(C(=O)O)=C(SCCN=CN)C[C@H]12` [Imipenem, reference compound], the MIC in experiment [1] (setting [5]) came to 0.1 µg/mL (≈ 0.334 µM); in experiment [2] (setting [6]), 0.78 µg/mL (≈ 2.61 µM).
On to `CC(Cc1cccnn1)SC1=C(C(=O)O)N2C(=O)[C@H]([C@@H](C)O)[C@H]2[C@H]1C` (single isomer, unassigned; diastereomer-2) [Working Example 17], for which the MIC in experiment [1] (setting [5]) and in experiment [2] (setting [6]) was 0.1 µg/mL (≈ 0.275 µM) each time.

The record behind these values is US6174877A, “Carbapenem compound, their production and use” (Takeda Chemical Industries, Ltd., priority 1996, dated 2001).
